In patent US8410112B2, “Compounds useful as inhibitors of ATR kinase” (Vertex Pharmaceuticals Incorporated, priority 2008, dated 2013):

Target: T1, full-length ATR (Homo sapiens, UniProt Q13535)
T1 construct: in the presence of 5 nM full-length ATR
Assay: ATR Inhibition Assay (radioactive-phosphate incorporation)
Format: biochemical
Conditions: Ki(app); 5 nM full-length ATR, 10 μM ATP, 800 μM target peptide, 25° C.
Experimental: Test compounds were screened for their ability to inhibit ATR kinase using a radioactive-phosphate incorporation assay. Assays were carried out in a mixture of 50 mM
Tris/HCl (pH 7.5), 10 mM MgCl2 and 1 mM DTT. Final substrate concentrations were 10 μM [γ-33P]ATP (3 mCi 33 P ATP/mmol ATP, Perkin Elmer) and 800 μM target peptide ([…]). Assays were carried out at 25° C. in the presence of 5 nM full-length ATR. An assay stock buffer solution was prepared containing all of the reagents listed above, with the exception of ATP and the test compound of interest. […] The plate was pre-incubated for 10 minutes at 25° C. and the reaction initiated by addition of 15 μL [γ-33P]ATP (final concentration 10 μM).
The reaction was stopped after […] by the addition of 30 μL 0.1M phosphoric acid containing 2 mM ATP. A multiscreen phosphocellulose filter 96-well plate (Millipore, Cat no. MAPHN0B50) was pretreated with 100 μL 0.2M phosphoric acid prior to the addition of 45 μL of the stopped assay mixture. The plate was washed with 5×200 μL 0.2M phosphoric acid.
After removing mean background values for all of the data points, Ki(app) data were calculated from non-linear regression analysis of the initial rate data using the Prism software package (GraphPad Prism version 3.0cx for Macintosh, GraphPad Software, San Diego Calif., USA).

T1 sequence (Q13535 whole entry): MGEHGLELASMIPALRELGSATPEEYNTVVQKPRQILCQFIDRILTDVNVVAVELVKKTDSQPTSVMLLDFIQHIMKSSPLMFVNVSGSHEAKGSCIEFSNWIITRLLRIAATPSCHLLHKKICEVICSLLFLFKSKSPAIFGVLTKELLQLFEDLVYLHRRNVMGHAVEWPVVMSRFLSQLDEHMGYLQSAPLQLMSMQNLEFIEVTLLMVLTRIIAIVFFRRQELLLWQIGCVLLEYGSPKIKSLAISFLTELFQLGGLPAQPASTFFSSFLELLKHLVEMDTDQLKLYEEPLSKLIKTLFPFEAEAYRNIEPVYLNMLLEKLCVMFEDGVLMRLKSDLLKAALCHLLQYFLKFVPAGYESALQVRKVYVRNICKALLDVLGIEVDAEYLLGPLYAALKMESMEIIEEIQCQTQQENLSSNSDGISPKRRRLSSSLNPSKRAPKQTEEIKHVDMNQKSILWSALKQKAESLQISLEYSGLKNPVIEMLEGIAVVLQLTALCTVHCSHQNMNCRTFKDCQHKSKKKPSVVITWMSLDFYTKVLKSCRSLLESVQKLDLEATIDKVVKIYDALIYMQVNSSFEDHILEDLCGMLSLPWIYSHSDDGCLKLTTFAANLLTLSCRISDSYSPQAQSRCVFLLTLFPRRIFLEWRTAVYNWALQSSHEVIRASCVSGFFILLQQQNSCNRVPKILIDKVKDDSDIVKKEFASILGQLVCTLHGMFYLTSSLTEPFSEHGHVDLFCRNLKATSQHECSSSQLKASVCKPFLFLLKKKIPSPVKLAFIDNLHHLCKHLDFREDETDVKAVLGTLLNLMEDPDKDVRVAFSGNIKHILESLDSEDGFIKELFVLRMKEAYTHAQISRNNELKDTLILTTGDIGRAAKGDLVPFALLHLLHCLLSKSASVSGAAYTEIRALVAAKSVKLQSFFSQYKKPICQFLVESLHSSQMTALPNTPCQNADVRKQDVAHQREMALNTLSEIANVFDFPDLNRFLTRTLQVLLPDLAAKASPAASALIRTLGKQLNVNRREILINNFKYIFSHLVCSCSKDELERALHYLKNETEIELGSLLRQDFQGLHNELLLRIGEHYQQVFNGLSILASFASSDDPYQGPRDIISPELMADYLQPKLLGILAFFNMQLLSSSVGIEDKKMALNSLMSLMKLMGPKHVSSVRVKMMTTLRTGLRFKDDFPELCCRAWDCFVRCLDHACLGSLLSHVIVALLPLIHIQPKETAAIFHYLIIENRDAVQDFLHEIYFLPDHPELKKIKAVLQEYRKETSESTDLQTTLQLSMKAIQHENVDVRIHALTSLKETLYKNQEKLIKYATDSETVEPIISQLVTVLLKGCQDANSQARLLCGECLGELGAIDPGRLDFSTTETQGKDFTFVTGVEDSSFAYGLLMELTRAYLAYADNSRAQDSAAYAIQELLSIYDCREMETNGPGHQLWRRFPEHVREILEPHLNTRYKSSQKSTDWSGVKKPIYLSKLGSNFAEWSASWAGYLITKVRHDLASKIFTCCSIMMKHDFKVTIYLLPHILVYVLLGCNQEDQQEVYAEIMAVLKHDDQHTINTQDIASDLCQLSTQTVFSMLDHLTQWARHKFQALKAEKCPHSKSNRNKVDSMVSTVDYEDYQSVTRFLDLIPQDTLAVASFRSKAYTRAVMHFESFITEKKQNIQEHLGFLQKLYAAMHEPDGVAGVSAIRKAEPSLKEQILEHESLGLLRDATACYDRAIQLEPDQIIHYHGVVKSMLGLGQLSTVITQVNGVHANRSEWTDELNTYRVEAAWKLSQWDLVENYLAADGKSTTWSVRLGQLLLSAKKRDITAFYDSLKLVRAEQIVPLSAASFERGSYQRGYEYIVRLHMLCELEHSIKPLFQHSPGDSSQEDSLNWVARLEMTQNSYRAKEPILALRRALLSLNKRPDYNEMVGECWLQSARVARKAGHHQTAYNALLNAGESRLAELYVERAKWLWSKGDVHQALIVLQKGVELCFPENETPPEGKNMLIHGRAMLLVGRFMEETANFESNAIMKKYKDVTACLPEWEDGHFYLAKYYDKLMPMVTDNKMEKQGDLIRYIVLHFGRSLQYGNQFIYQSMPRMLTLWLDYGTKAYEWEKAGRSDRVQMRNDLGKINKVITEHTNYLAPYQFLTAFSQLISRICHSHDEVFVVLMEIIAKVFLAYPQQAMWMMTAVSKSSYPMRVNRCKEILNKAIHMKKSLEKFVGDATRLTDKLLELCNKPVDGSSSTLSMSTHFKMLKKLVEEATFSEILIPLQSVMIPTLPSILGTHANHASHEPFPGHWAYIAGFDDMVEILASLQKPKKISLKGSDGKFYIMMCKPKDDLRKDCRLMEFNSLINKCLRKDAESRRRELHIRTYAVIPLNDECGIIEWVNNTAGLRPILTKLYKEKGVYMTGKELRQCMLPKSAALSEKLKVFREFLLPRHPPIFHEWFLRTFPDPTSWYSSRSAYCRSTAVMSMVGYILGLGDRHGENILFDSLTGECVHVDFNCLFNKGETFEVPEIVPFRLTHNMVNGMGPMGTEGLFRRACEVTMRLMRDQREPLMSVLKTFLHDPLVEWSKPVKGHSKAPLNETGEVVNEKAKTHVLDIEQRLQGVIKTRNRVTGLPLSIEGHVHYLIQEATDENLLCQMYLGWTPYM

Row | SMILES | Ki
1 | Nc1ncc(N2C[C@@H]3CCC(O)[C@@H]3C2)nc1-c1nnc(-c2ccccc2)o1 (stereo in doubt) [Compound I-318, (3aR,6aS)-2-[5-Amino-6-(5-phenyl-1,3,4-oxadiazol-2-yl)pyrazin-2-yl]-3,3a,4,5,6,6a-hexahydro-1H-cyclopenta[c]pyrrol-6-ol] | < 100 nM
2 | CC(=O)N1CCCN(c2cnc(N)c(-c3nc4ccc(C)cc4[nH]3)n2)CC1 [Compound I-1, 1-(4-(5-amino-6-(6-methyl-1H-benzo[d]imidazol-2-yl)pyrazin-2-yl)-1,4-diazepan-1-yl)ethanone] | 1000 to 10000 nM
3 | Cc1ccc2nc(-c3nc(N4CCC(CO)CC4)cnc3N)[nH]c2c1 [Compound I-2, (1-(5-amino-6-(6-methyl-1H-benzo[d]imidazol-2-yl)pyrazin-2-yl)piperidin-4-yl)methanol] | 1000 to 10000 nM
4 | Cc1ccc2nc(-c3nc(N4CCOCC4)cnc3N)[nH]c2c1 [Compound I-3, 3-(6-methyl-1H-benzo[d]imidazol-2-yl)-5-morpholinopyrazin-2-amine] | 100 to 1000 nM
5 | CC(=O)N[C@H]1CCN(c2cnc(N)c(-c3nc4ccc(C)cc4[nH]3)n2)C1 [Compound I-4, (S)-N-(1-(5-amino-6-(6-methyl-1H-benzo[d]imidazol-2-yl)pyrazin-2-yl)pyrrolidin-3-yl)ethanamide] | 100 to 1000 nM
6 | Cc1ccc2nc(-c3nc(N4CCC(O)CC4)cnc3N)[nH]c2c1 [Compound I-5, 1-(5-amino-6-(6-methyl-1H-benzo[d]imidazol-2-yl)pyrazin-2-yl)piperidin-4-ol] | 1000 to 10000 nM
7 | CCS(=O)(=O)N1CCN(c2cnc(N)c(-c3nc4ccc(C)cc4[nH]3)n2)CC1 [Compound I-6, 5-(4-(ethylsulfonyl)piperazin-1-yl)-3-(6-methyl-1H-benzo[d]imidazol-2-yl)pyrazin-2-amine] | 100 to 1000 nM
8 | Cc1ccc2nc(-c3nc(N4CCNC(=O)C4)cnc3N)[nH]c2c1 [Compound I-7, 4-(5-amino-6-(6-methyl-1H-benzo[d]imidazol-2-yl)pyrazin-2-yl)piperazin-2-one] | 100 to 1000 nM
9 | Cc1ccc2nc(-c3nc(N4CCSCC4)cnc3N)[nH]c2c1 [Compound I-8, 3-(6-methyl-1H-benzo[d]imidazol-2-yl)-5-thiomorpholinopyrazin-2-amine] | 100 to 1000 nM
10 | CC(=O)N[C@@H]1CCN(c2cnc(N)c(-c3nc4ccc(C)cc4[nH]3)n2)C1 [Compound I-9, (R)-N-(1-(5-amino-6-(6-methyl-1H-benzo[d]imidazol-2-yl)pyrazin-2-yl)pyrrolidin-3-yl)ethanamide] | 1000 to 10000 nM
11 | CC(=O)N1CCN(c2cnc(N)c(-c3nc4ccc(C)cc4[nH]3)n2)CC1 [Compound I-10, 1-(4-(5-amino-6-(6-methyl-1H-benzo[d]imidazol-2-yl)pyrazin-2-yl)piperazin-1-yl)ethanone] | 100 to 1000 nM
12 | Cc1ccc2nc(-c3nc(N4CCC(=O)CC4)cnc3N)[nH]c2c1 [Compound I-11, 1-(5-amino-6-(6-methyl-1H-benzo[d]imidazol-2-yl)pyrazin-2-yl)piperidin-4-one] | 1000 to 10000 nM
13 | COC1CCN(c2cnc(N)c(-c3nc4ccc(C)cc4[nH]3)n2)CC1 [Compound I-12, 5-(4-methoxypiperidin-1-yl)-3-(6-methyl-1H-benzo[d]imidazol-2-yl)pyrazin-2-amine] | 1000 to 10000 nM
14 | CNC(=O)C1CCN(c2cnc(N)c(-c3nc4ccc(C)cc4[nH]3)n2)CC1 [Compound I-13, 1-(5-amino-6-(6-methyl-1H-benzo[d]imidazol-2-yl)pyrazin-2-yl)-N-methylpiperidine-4-carboxamide] | 1000 to 10000 nM
15 | Cc1ccc2nc(-c3nc(N4CCC(C(N)=O)CC4)cnc3N)[nH]c2c1 [Compound I-14, 1-(5-amino-6-(6-methyl-1H-benzo[d]imidazol-2-yl)pyrazin-2-yl)piperidine-4-carboxamide] | 1000 to 10000 nM
16 | CCS(=O)(=O)N1CCN(c2cnc(N)c(-c3nc4ccccc4n3C)n2)CC1 [Compound I-15, 5-(4-(ethylsulfonyl)piperazin-1-yl)-3-(1-methyl-1H-benzo[d]imidazol-2-yl)pyrazin-2-amine] | 100 to 1000 nM
